Results: patent publication US8357701B2, “Galactokinase inhibitors” (University of Miami, priority 2007, dated 2013)

Experiments:
Assay type in all cases: biochemical
[1] = target: T1, human galactokinase (GALK) (Homo sapiens, UniProt P51570); experiment: two-step luminescence-based (Kinase-Glo) high-throughput GALK assay; conditions: ATP-γ-S from 0 to 13.3 μM, ATP constant at 5 μM; FIG. 3C
T1 construct: made in house; host or cells: Escherichia coli HMS174 (DE3), plasmid pET15b
Protocol: Using the Kinase-Glo™ reagent (Promega, Madison, Wis.), a miniaturized, two-step HTS assay for GALK was developed. […] After 60 minutes at room temperature (22° C.), 30 μL of Kinase Glo™ (Promega) was added, and luminescence was measured within 30 min using an Envision Multilabel Plate Reader (Perkin Elmer). In the course of 12 days, nearly 50,000 compounds from various libraries of small molecules with diverse structural scaffolds were screened for their inhibitory properties of GALK activity in vitro. […] The reaction was then allowed to proceed at room temperature (22° C.) for 60 min. Then, 30 μL of Kinase-Glo™ was added to stop the reaction, and luminescence was measured 15 to 30 min later using the Envision Multilabel Plate Reader (PerkinElmer). 50,000 small molecules were screened, in duplicate, for inhibitory properties against purified GALK. […] In short, duplicate luminescence measurements were corrected for background measurements using the method described by Seiler et al. (Nucl. Acids Res 2007). […] After 60 min at room temperature (22° C.), 30 μL of Kinase-Glo™ was added, and luminescence was measured within 30 min using an Envision Multilabel Plate Reader (PerkinElmer, Waltham, Mass.). […] Then, 30 μl of Kinase-Glo™ was added to stop the reaction, and luminescence was measured 15 to 30 min later using the Envision Multilabel Plate Reader (PerkinElmer). […]

human GALK = target: T2, human GALK (Homo sapiens, UniProt P51570); experiment: standard pyruvate kinase/lactate dehydrogenase-coupled GALK assay; conditions: dose response, FIG. 7; values somewhat lower than in the luminescence assay; no numbers given
T2 construct: made in house; host or cells: Escherichia coli HMS174 (DE3), plasmid pET15b
T2 sequence (P51570 whole entry): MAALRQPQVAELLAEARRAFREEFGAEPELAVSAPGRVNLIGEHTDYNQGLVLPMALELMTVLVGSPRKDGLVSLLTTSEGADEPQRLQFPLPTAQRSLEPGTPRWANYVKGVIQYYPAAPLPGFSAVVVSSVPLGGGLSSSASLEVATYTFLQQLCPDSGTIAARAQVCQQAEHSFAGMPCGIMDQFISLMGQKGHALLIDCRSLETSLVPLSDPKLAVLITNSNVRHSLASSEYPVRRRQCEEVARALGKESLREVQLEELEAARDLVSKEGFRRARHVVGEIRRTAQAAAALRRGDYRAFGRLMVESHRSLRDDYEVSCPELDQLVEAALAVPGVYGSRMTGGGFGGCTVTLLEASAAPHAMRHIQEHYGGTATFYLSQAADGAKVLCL
Text: As the percentage of substrate conversion can have significant impact on the accuracy of IC50 determination, the preferred approach is to determine reaction rates at initial velocity (i.e., zero substrate conversion). […] In this assay, the amount of galactose present in the reaction is kept in excess, whereas ATP consumed by the galactokinase reaction is recycled by the pyruvate kinase reaction.
As the percentage of substrate conversion can have significant impact on the accuracy of IC50 determination, the preferred approach is to determine reaction rates at initial velocity (i.e., zero substrate conversion). […] The dose response of the selected compounds was analyzed using the standard pyruvate kinase/lactate dehydrogenase-Coupled assay. In this assay, the amount of galactose present in the reaction was kept in excess, whereas ATP consumed by the galactokinase reaction was recycled by the pyruvate kinase reaction.

[2] = target: T3, purified recombinant E. coli CDP-ME kinase (Escherichia coli, UniProt P62615); experiment: CDP-ME kinase assay (luminescence-based); conditions: CDP-ME as substrate; increasing compound concentration; FIG. 10B
T3 construct: made in house; host or cells: E. coli HMS174
T3 sequence (P62615 1-283): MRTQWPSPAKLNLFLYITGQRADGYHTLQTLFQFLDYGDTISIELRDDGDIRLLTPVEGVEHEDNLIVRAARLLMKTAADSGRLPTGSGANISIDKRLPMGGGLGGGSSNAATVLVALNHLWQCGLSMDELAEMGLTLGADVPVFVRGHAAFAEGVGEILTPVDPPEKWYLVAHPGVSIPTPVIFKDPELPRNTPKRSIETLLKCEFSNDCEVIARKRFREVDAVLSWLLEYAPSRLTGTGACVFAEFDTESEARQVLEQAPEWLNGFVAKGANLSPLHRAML
Protocol: Detailed Protocol for CDP-ME Kinase Assay
Protocol: Mix I was prepared using 1 microL for MVK. If dilutions are to be made, dilute in 1× buffer to 1 microL. Mix II was prepared just before use, as CMP-ME and ATP may deteriorate. Final CMP-ME concentration was chosen at 50 microM for the sake of economics and kept on ice until it was dispensed.
At least 4 replicates per condition were used in the experiment. Mix I was dispensed on the plate with a pipette. Mix II was then added and the plate covered with foil. The plates was incubated at 37° C. for 15 minutes and Kinase-Glo® (Promega, Madison Wis.) was added, the plate covered with foil, and incubated at RT for 15 minutes. Measurements were taken as described for the GALK protocol, the data were plotted and the enzyme concentration with reading within linear range just above baseline was selected.
Protocol to test for inhibition: Compound stored at −80° C. was slowly thawed. Stock was at 10 mM concentration.
These were incubated for 1 hour with MVK. Each dilution was then be pipetted into wells (40 microL each). 20 microL of Mix II was added to each well and covered with foil. The plates were incubated at 37° C., for 15 minutes, then Kinase-Glo® (Promega, Madison, Wis.) was added, plates were covered with foil, and incubated at room temperature (RT) for 15 minutes. The data was plotted and the IC50 was calculated.

T1 sequence (P51570 whole entry): as the sequence (P51570 whole entry) above

inhibition of GALK activity by ATP mimetic [1] | SMILES | IC50 values confirmed in coupled assay (human GALK) | inhibition of E. coli CDP-ME kinase [2]
acted as a GALK inhibitor | Nc1ncnc2c1ncn2[C@@H]1O[C@H](COP(=O)(O)OP(=O)(O)OP(O)(O)=S)[C@@H](O)[C@H]1O [ATP-γ-S, adenosine 5′-O-(3-thio-)triphosphate] |  | 
 | CC(C)(C)C(=O)Nc1ccc2c(c1)C(=O)C(=O)c1ccccc1-2 [compound 1, Tyrosine Phosphatase CD45 inhibitor] | confirmed | 
 | CC1(c2ccccc2)CC(C)(C)N2C(=O)/C(=C3/SC(=O)NC3=O)c3cccc1c32 (stereo not drawn) [compound 3] | confirmed | 
 | Oc1c(Cl)cc(Cl)c(Cl)c1Cc1c(O)c(Cl)cc(Cl)c1Cl [compound 9, Hexachlorophene] | confirmed | inhibits E. coli CDP-ME kinase
 | COC1=C(N)C(=O)c2nc(-c3nc(C(=O)O)c(C)c(-c4ccc(OC)c(OC)c4O)c3N)ccc2C1=O [compound 24, Streptonigrin] | confirmed | 
